How the values were obtained:
Assay in all cases: Test D controlled growth environment herbicide test, pre- and postemergence
Type in all cases: in vivo
[1] = test system: wheat, spring (spring wheat, Triticum aestivum)
Method in brief: (§1)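 Pre-emergence: seeds sown in silt loam soil were sprayed with compound in a non-phytotoxic solvent mix containing surfactant. Post-emergence: plants at 2 to 18 cm (1- to 4-leaf stage) in peat moss/vermiculite medium got the same formulation. Visual 0–100 rating versus controls after 14 to 21 d.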

[2] = test system: oilseed rape (Brassica napus)
Method in brief: as §1

[3] = test system: field violet (Viola arvensis)
Method in brief: as §1

[4] = test system: speedwell (bird's-eye speedwell, Veronica persica)
Method in brief: as §1

[5] = test system: chamomile (scentless chamomile, Matricaria inodora)
Method in brief: as §1

[6] = test system: oat, wild (wild oat, Avena fatua)
Method in brief: as §1

[7] = test system: windgrass (Apera spica-venti)
Method in brief: as §1

[8] = test system: bromegrass, downy (downy bromegrass, Bromus tectorum)
Method in brief: as §1

[9] = test system: mustard, wild (wild mustard, Sinapis arvensis)
Method in brief: as §1

[10] = test system: lambsquarters (Chenopodium album)
Method in brief: as §1

[11] = test system: radish, wild (wild radish, Raphanus raphanistrum)
Method in brief: as §1

[12] = test system: barley, spring (spring barley, Hordeum vulgare)
Method in brief: as §1

[13] = test system: deadnettle (henbit deadnettle, Lamium amplexicaule)
Method in brief: as §1

[14] = Postemergence, 31 g ai/ha, scale 0 to 100 (0 no effect, 100 complete control)
[15] = Postemergence, 125 g ai/ha, visual rating on scale 0 (no effect) to 100 (complete control), 14 to 21 d
[16] = Postemergence, 250 g ai/ha, scale 0 to 100 (0 no effect, 100 complete control)
[17] = Preemergence, 125 g ai/ha, scale 0 to 100 (0 no effect, 100 complete control)
[18] = Preemergence, 250 g ai/ha, scale 0 to 100 (0 no effect, 100 complete control)
[19] = postemergence, 62 g ai/ha, scale 0 to 100, 0 no effect, 100 complete control
[20] = Preemergence, 62 g ai/ha, scale 0 to 100 (0 no effect, 100 complete control)

CCC(=O)Oc1c(C)nn(C)c(=O)c1-c1c(C)sc2ccc(Cl)cc12 [Compound 109]
Wheat, Spring plant response rating [1, 14]: 5 | Plant response rating, Wheat, Spring [1, 15]: 25 | Plant response rating, Wheat, Spring [1, 16]: 30 | Plant response rating (scale of 0 to 100), Wheat, Spring ([1]; Preemergence, 31 g ai/ha): 0 | Plant response rating (scale of 0 to 100), Wheat, Spring ([1]; Preemergence, 62 g ai/ha): 5 | Plant response rating, Wheat, Spring [1, 17]: 20 | Plant response rating, Wheat, Spring [1, 18]: 40 | Plant response rating, Wheat, Spring [1, 19]: 15 | Oilseed Rape plant response rating [2, 14]: 65 | Plant response rating, Oilseed Rape [2, 15]: 75 | Plant response rating, Oilseed Rape [2, 16]: 85 | Plant response rating (scale of 0 to 100), Oilseed Rape ([2]; Preemergence, 31 g ai/ha): 15 | Plant response rating (scale of 0 to 100), Oilseed Rape ([2]; Preemergence, 62 g ai/ha): 40 | Plant response rating, Oilseed Rape [2, 17]: 75 | Plant response rating, Oilseed Rape [2, 18]: 85 | Plant response rating, Oilseed Rape [2, 19]: 70 | Field Violet plant response rating [3, 14]: 90 | Plant response rating, Field Violet [3, 15]: 100 | Plant response rating, Field Violet [3, 16]: 100 | Plant response rating (scale of 0 to 100), Field Violet ([3]; Preemergence, 31 g ai/ha): 85 | Plant response rating (scale of 0 to 100), Field Violet ([3]; Preemergence, 62 g ai/ha): 100 | Plant response rating, Field Violet [3, 17]: 100 | Plant response rating, Field Violet [3, 18]: 100 | Plant response rating, Field Violet [3, 19]: 95 | Speedwell plant response rating [4, 14]: 50 | Plant response rating, Speedwell [4, 15]: 75 | Plant response rating, Speedwell [4, 16]: 100 | Plant response rating, Speedwell [4, 19]: 60 | Chamomile plant response rating [5, 14]: 80 | Plant response rating, Chamomile [5, 15]: 95 | Plant response rating, Chamomile [5, 16]: 100 | Plant response rating, Chamomile [5, 19]: 85 | Oat, Wild plant response rating [6, 14]: 95 | Plant response rating, Oat, Wild [6, 15]: 95 | Plant response rating, Oat, Wild [6, 16]: 100 | Plant response rating (scale of 0 to 100), Oat, Wild ([6]; Preemergence, 31 g ai/ha): 75 | Plant response rating (scale of 0 to 100), Oat, Wild ([6]; Preemergence, 62 g ai/ha): 80 | Plant response rating, Oat, Wild [6, 17]: 90 | Plant response rating, Oat, Wild [6, 18]: 90 | Plant response rating, Oat, Wild [6, 19]: 95 | Windgrass plant response rating [7, 14]: 60 | Plant response rating, Windgrass [7, 15]: 80 | Plant response rating, Windgrass [7, 16]: 90 | Plant response rating (scale of 0 to 100), Windgrass ([7]; Preemergence, 31 g ai/ha): 55 | Plant response rating (scale of 0 to 100), Windgrass ([7]; Preemergence, 62 g ai/ha): 60 | Plant response rating, Windgrass [7, 17]: 80 | Plant response rating, Windgrass [7, 18]: 100 | Plant response rating, Windgrass [7, 19]: 65 | Bromegrass, Downy plant response rating [8, 14]: 30 | Plant response rating, Bromegrass, Downy [8, 15]: 60 | Plant response rating, Bromegrass, Downy [8, 16]: 75 | Plant response rating (scale of 0 to 100), Bromegrass, Downy ([8]; Preemergence, 31 g ai/ha): 0 | Plant response rating, Bromegrass, Downy [8, 20]: 30 | Plant response rating, Bromegrass, Downy [8, 17]: 65 | Plant response rating, Bromegrass, Downy [8, 18]: 65 | Plant response rating, Bromegrass, Downy [8, 19]: 30 | Mustard, Wild plant response rating [9, 14]: 60 | Plant response rating, Mustard, Wild [9, 15]: 90 | Plant response rating, Mustard, Wild [9, 16]: 100 | Plant response rating (scale of 0 to 100), Mustard, Wild ([9]; Preemergence, 31 g ai/ha): 5 | Plant response rating (scale of 0 to 100), Mustard, Wild ([9]; Preemergence, 62 g ai/ha): 75 | Plant response rating, Mustard, Wild [9, 17]: 100 | Plant response rating, Mustard, Wild [9, 18]: 100 | Plant response rating, Mustard, Wild [9, 19]: 85 | Lambsquarters plant response rating [10, 14]: 90 | Plant response rating, Lambsquarters [10, 15]: 95 | Plant response rating, Lambsquarters [10, 16]: 100 | Plant response rating (scale of 0 to 100), Lambsquarters ([10]; Preemergence, 31 g ai/ha): 95 | Plant response rating (scale of 0 to 100), Lambsquarters ([10]; Preemergence, 62 g ai/ha): 100 | Plant response rating, Lambsquarters [10, 17]: 100 | Plant response rating, Lambsquarters [10, 18]: 100 | Plant response rating, Lambsquarters [10, 19]: 95 | Radish, Wild plant response rating [11, 14]: 75 | Plant response rating, Radish, Wild [11, 15]: 90 | Plant response rating, Radish, Wild [11, 16]: 100 | Plant response rating (scale of 0 to 100), Radish, Wild ([11]; Preemergence, 31 g ai/ha): 25 | Plant response rating (scale of 0 to 100), Radish, Wild ([11]; Preemergence, 62 g ai/ha): 75 | Plant response rating, Radish, Wild [11, 17]: 90 | Plant response rating, Radish, Wild [11, 18]: 95 | Plant response rating, Radish, Wild [11, 19]: 75 | Barley, Spring plant response rating [12, 14]: 0 | Plant response rating, Barley, Spring [12, 15]: 10 | Plant response rating, Barley, Spring [12, 16]: 25 | Plant response rating (scale of 0 to 100), Barley, Spring ([12]; Preemergence, 31 g ai/ha): 0 | Plant response rating, Barley, Spring [12, 20]: 0 | Plant response rating, Barley, Spring [12, 17]: 5 | Plant response rating, Barley, Spring [12, 18]: 5 | Plant response rating, Barley, Spring [12, 19]: 5 | Deadnettle plant response rating [13, 14]: 20 | Plant response rating, Deadnettle [13, 15]: 70 | Plant response rating, Deadnettle [13, 16]: 95 | Plant response rating (scale of 0 to 100), Deadnettle ([13]; Preemergence, 31 g ai/ha): 0 | Plant response rating (scale of 0 to 100), Deadnettle ([13]; Preemergence, 62 g ai/ha): 60 | Plant response rating, Deadnettle [13, 17]: 80 | Plant response rating, Deadnettle [13, 18]: 95 | Plant response rating, Deadnettle [13, 19]: 50
